{"source": "patent US20120095055A1", "about": "“HEXAHYDROCYCLOPENTYL[f]INDAZOLE 5-HYDROXYMETHYL ETHANOLS AND DERIVATIVES THEREOF AS SELECTIVE GLUCOCORTICOID RECEPTOR MODULATORS” (Merck Sharp & Dohme, Corp., priority 2009, published 2012)"}
{"target": "T1, glucocorticoid receptor (GR) (Homo sapiens, UniProt P04150)", "T1 construct": "endogenous in cells; host or cells: HeLa (ATCC) cell lysate supernatant", "T1 sequence (P04150 1-777)": "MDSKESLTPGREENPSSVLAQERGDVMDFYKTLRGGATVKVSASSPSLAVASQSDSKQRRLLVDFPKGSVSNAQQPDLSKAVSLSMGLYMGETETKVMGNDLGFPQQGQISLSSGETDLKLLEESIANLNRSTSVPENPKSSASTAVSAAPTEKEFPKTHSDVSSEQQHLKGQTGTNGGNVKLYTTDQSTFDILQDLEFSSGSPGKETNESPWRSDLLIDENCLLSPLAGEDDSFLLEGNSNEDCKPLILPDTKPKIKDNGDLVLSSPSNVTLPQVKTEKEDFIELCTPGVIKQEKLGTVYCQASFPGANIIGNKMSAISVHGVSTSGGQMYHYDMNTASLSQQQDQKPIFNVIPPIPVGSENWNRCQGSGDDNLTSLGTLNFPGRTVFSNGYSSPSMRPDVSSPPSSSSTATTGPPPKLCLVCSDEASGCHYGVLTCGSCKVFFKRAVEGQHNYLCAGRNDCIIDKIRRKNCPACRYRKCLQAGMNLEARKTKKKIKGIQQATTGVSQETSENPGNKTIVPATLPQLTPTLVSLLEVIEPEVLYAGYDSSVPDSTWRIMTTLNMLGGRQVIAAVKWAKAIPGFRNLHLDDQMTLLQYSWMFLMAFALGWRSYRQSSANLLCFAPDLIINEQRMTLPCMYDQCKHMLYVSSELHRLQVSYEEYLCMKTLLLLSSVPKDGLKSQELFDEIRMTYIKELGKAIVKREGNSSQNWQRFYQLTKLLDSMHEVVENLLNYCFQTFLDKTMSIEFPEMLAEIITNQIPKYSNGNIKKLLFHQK", "assay": "GR Ligand Binding Assay (3H-dexamethasone displacement, HeLa cell lysate)", "conditions": "3H-DEX trace, DEX as reference, read-out: GR BIND Ki", "method": "Binding Buffer: TEGM (10 mM Tris-HCl, 1 mM EDTA, 10% glycerol, 1 mM beta-mecaptoethanol, 10 mM Sodium Molybdate, pH 7.2)\nDexmethasone-methyl-^3H, (DEX*); (Amersham cat# TRK645) Dexamethasone(DEX) (Sigma, cat# D1756):\nCells (Hall R. E., et al., European Journal of Cancer, 30A: 484-490 (1994)) HeLa (ATCC) cultured in RPMI 1640 (Gibco 11835-055) containing 20 mM Hepes, 4 mM L-glu, 10 ug/ml of human insulin (Sigma, I-0259), 10% FBS and 20 ug/ml of Gentamicin (Gibco#15710-072) are rinsed twice in PBS. Phenol red-free Trypsin-EDTA is diluted in the same PBS 1:10. The cell layers are rinsed with 1× Trypsin, extra Trypsin is poured out, and the cell layers are incubated at 37° C. for ˜2 min. The flask is tapped and checked for signs of cell detachment. Once the cells begin to slide off the flask, the complete media is added. The cells are counted at this point, then diluted to the appropriate concentration and split into flasks or dishes for further culturing (Usually 1:3 to 1:6 dilution).\nWhen the cells are 70 to 85% confluent, they are detached as described above, and collected by centrifuging at 1000 g for 10 minutes at 4° C. The cell pellet is washed twice with TEGM (10 mM Tris-HCl, 1 mM EDTA, 10% glycerol, 1 mM beta-mercaptoethanol, 10 mM Sodium Molybdate, pH 7.2). After the final wash, the cells are resuspended in TEGM at a concentration of 10^7 cells/mL. The cell suspension is snap frozen in liquid nitrogen or ethanol/dry ice bath and transferred to −80° C. freezer on dry ice. Before setting up the binding assay, the frozen samples are left on ice-water to just thaw (˜1 hr). Then the samples are centrifuged at 12,500 g to 20,000 g for 30 min at 4° C. The supernatant is used to set-up assay right away. If using 50 μL of supernatant, the test compound can be prepared in 50 μL of the TEGM buffer.\n1×TEGM buffer is prepared, and the isotope-containing assay mixture is prepared in the following order: EtOH (2% final concentration in reaction), ^3H-DEX (Amersham Biosciences) and 1×TEGM. [e.g. For 100 samples, 200 μL (100×2) of EtOH+4.25 μL of 1:10 ^3H—Dex stock+2300 μL (100×23) 1×TEGM]. The compound is serially diluted, e.g., if starting final conc. is 1 μM, and the compound is in 25 μL of solution, for duplicate samples, 75 μL of 4×1 μM solution is made and 3 μL of 100 μM is added to 72 μL of buffer, and 1:5 serial dilution.\n25 μL, of 3H-DEX (6 nM) trace and 25 μL compound solution are first mixed together, followed by addition of 50 μL receptor solution. The reaction is gently mixed, spun briefly at about 200 rpm and incubated at 4° C. overnight. 100 μL of 50% HAP slurry is prepared and added to the incubated reaction which is then vortexed and incubated on ice for 5 to 10 minutes. The reaction mixture is vortexed twice more to resuspend HAP while incubating reaction. The samples in 96-well format are then washed in wash buffer using The FilterMate™ Universal Harvester plate washer (Packard). The washing process transfers HAP pellet containing ligand-bound expressed receptor to Unifilter-96 GF/B filter plate (Packard). The HAP pellet on the filter plate is incubated with 50 μL of MICROSCINT (Packard) scintillint for 30 minutes before being counted on the TopCount microscintillation counter (Packard). IC50s are calculated using DEX as a reference.", "units": {"Ki": "nM"}}
{"smiles": "C[C@]12Cc3cnn(-c4ccc(F)cc4)c3C=C1CC[C@@]2(CO)CC(O)c1ccncc1", "note": "(single isomer, unassigned) [Example 17a]", "Ki": 6.4}
{"smiles": "C[C@]12Cc3cnn(-c4ccccc4)c3C=C1CC[C@@]2(CO)CC(O)c1ccccn1", "note": "(single isomer, unassigned) [Example 23a]", "Ki": 7.7}
{"smiles": "C[C@]12Cc3cnn(-c4cccc(F)c4)c3C=C1CC[C@@]2(CO)CC(O)c1cccnc1", "note": "(single isomer, unassigned) [Example 27a]", "Ki": 13.9}
{"smiles": "Cc1cccc(C(O)C[C@]2(CO)CCC3=Cc4c(cnn4-c4ccc(F)cc4)C[C@@]32C)c1", "note": "(single isomer, unassigned) [Example 5b]", "Ki": 0.9}
{"smiles": "C[C@]12Cc3cnn(-c4ccc(F)cc4)c3C=C1CC[C@@]2(CO)CC(O)C(F)(F)F", "note": "(single isomer, unassigned) [Example 28b]", "Ki": 5.4}
{"smiles": "CC(O)(C[C@]1(CO)CCC2=Cc3c(cnn3-c3ccc(F)cc3)C[C@@]21C)c1cccnc1", "note": "(single isomer, unassigned) [Example 25a]", "Ki": 26.3}
{"smiles": "C[C@]12Cc3cnn(-c4ccc(F)cc4)c3C=C1CC[C@@]2(CO)CC(O)c1ccncc1", "note": "(single isomer, unassigned) [Example 17b]", "Ki": 7.5}
{"smiles": "Cc1ccc(C(O)C[C@]2(CO)CCC3=Cc4c(cnn4-c4ccc(F)cc4)C[C@@]32C)cc1", "note": "(single isomer, unassigned) [Example 2b]", "Ki": 2.1}
{"smiles": "C[C@]12Cc3cnn(-c4ccc(F)cc4)c3C=C1CC[C@@]2(CO)CC(O)c1ccc(F)cn1", "note": "(single isomer, unassigned) [Example 22b]", "Ki": 5.1}
{"smiles": "C[C@]12Cc3cnn(-c4ccc(F)cc4)c3C=C1CC[C@@]2(CO)CC(O)c1cccnc1", "note": "(single isomer, unassigned) [Example 15a]", "Ki": 10}
{"smiles": "C[C@]12Cc3cnn(-c4ccc(F)cc4)c3C=C1CC[C@@]2(CO)CC(O)c1ccccn1", "note": "(single isomer, unassigned) [Example 1a]", "Ki": 5.2}
{"smiles": "C[C@]12Cc3cnn(-c4ccc(F)cc4)c3C=C1CC[C@@]2(CO)CC(O)c1ccc(F)cn1", "note": "(single isomer, unassigned) [Example 22a]", "Ki": 2.3}
{"smiles": "C[C@]12Cc3cnn(-c4ccc(F)cc4)c3C=C1CC[C@@]2(CO)CC(O)c1cccc(C(F)(F)F)c1", "note": "(single isomer, unassigned) [Example 7a]", "Ki": 0.6}
{"smiles": "COc1cccnc1C(O)C[C@]1(CO)CCC2=Cc3c(cnn3-c3cccc(F)c3)C[C@@]21C", "note": "(single isomer, unassigned) [Example 26a]", "Ki": 8.6}
{"smiles": "CC(C)C(O)C[C@]1(CO)CCC2=Cc3c(cnn3-c3ccc(F)cc3)C[C@@]21C", "note": "(single isomer, unassigned) [Example 14a]", "Ki": 6.4}
{"smiles": "C[C@]12Cc3cnn(-c4ccc(F)cc4)c3C=C1CC[C@@]2(CO)CC(O)C1CC1", "note": "(single isomer, unassigned) [Example 20b, 1-cyclopropyl-2-[(4αS)-1-(4-fluorophenyl)-5-(hydroxymethyl)-4α-methyl-1,4,4α,5,6,7-hexahydrocyclopenta[f]indazol-5-yl]ethanol]", "Ki": 15.1}
{"smiles": "C[C@]12Cc3cnn(-c4ccc(F)cc4)c3C=C1CC[C@@]2(CO)CC(O)c1ncccc1F", "note": "(single isomer, unassigned) [Example 10a]", "Ki": 3.1}
{"smiles": "C[C@]12Cc3cnn(-c4ccc(F)cc4)c3C=C1CC[C@@]2(CO)CC(O)c1ccccc1", "note": "(single isomer, unassigned) [Example 13a]", "Ki": 2.5}
{"smiles": "Cc1ccc(C(O)C[C@]2(CO)CCC3=Cc4c(cnn4-c4ccc(F)cc4)C[C@@]32C)cc1", "note": "(single isomer, unassigned) [Example 2a]", "Ki": 2.2}
{"smiles": "COc1cccnc1C(O)C[C@]1(CO)CCC2=Cc3c(cnn3-c3cccc(F)c3)C[C@@]21C", "note": "(single isomer, unassigned) [Example 26b]", "Ki": 35.5}
{"smiles": "C[C@]12Cc3cnn(-c4ccc(F)cc4)c3C=C1CC[C@@]2(CO)CC(O)c1ccccc1", "note": "(single isomer, unassigned) [Example 13b]", "Ki": 1.9}
{"smiles": "COc1ccc(C(O)C[C@]2(CO)CCC3=Cc4c(cnn4-c4ccc(F)cc4)C[C@@]32C)nc1", "note": "(single isomer, unassigned) [Example 24a]", "Ki": 3.1}
{"smiles": "C[C@]12Cc3cnn(-c4ccc(F)cc4)c3C=C1CC[C@@]2(CO)CC(O)c1ccccc1F", "note": "(stereo partly drawn) [Example 4, 1-(2-fluorophenyl)-2-[(4αS,5R)-1-(4-fluorophenyl)-5-(hydroxymethyl)-4α-methyl-1,4,4α,5,6,7-hexahydrocyclopenta[f]indazol-5-yl]ethanol]", "Ki": 0.9}
{"smiles": "CC(C)C(O)C[C@]1(CO)CCC2=Cc3c(cnn3-c3ccc(F)cc3)C[C@@]21C", "note": "(single isomer, unassigned) [Example 14b]", "Ki": 14.1}
